{"source": "patent US20250339409A1", "about": "“USES OF PAN BET INHIBITORS” (VYNE THERAPEUTICS INC., priority 2021, published 2025)", "key": {"[1]": {"assay": "Chemical and physical stability of formulations (HPLC, polarized light microscopy)", "format": "physicochemical", "conditions": "3 m at 25° C.", "experimental": "For Polarized Light Microscopy evaluation, the samples of the formulations in petrolatum are heated to 55° C. to melt most of the petrolatum crystals and make visible crystals of API. The API crystals are measured and photomicrographs are taken.\nThe microscopy samples of API are prepared by dispersing some (unmeasured amount) of API powder in a drop of mineral oil. The dispersion is done by a spatula. The concentration of API in mineral oil is unknown.\nThe stability of prepared formulations was assessed by HPLC testing of samples of two formulations, prepared with API from two different sources. […] The area % of the main peak in the samples after temperature exposure was compared to area % of the main peak in initial samples of the same batches and in the corresponding APIs. The samples exposed to stability challenge were also evaluated for presence of new peaks, not observed in API or in initial samples."}, "[2]": {"tested_on": "bleomycin induced pulmonary fibrosis", "assay": "Bleomycin mice: lung histopathology (H & E, Masson's Trichrome), Hübner-modified Ashcroft score", "format": "in vivo, C57BL/6 male mice", "conditions": "for mean score, Hübner-modified Ashcroft scale of 0-8: bleomycin", "description": "Seven mice from each group are randomly submitted for histopathology analysis (Hematoxylin and eosin (H & E) and Masson's Trichrome (MT)). The lungs are trimmed as needed and processed overnight in a Citadel 1000 automated processor by Shandon Scientific. Post-processing, lungs are embedded in paraffin blocks and sectioned in the following fashion: several slides are generated with lung sections in the first 1 mm of tissue, middle portions of the tissue, and finally near the latter third of the tissue in order to glean histological alterations throughout the lung. Sections are cut at […] thickness with a rotary microtome. Several slides per lung (at each depth) are stained with a H & E stain (reagents from Fisher Scientific) and MT Stain (Sigma kit HT15).\nPathological alterations are evaluated by a pathologist in blind manner (both dosage and treatment programs are unknown to the pathologist). The subacute interstitial inflammation and Agonal Hemorrhage are evaluated mainly based on the H & E staining. Fibrotic modifications are assessed morphologically and semi-quantitatively graded according to the scale defined by Ashcroft and modified by Hübner. Three sections for each lung sample are stained with MT and scored on a scale of 0-8. The final score is expressed as a mean of individual scores observed across all microscopic fields. In order to quantify the distribution of pulmonary fibrosis, the Ashcroft scores are graded in 3 general classes of increasing values: ranging from 0-3 (mild), 4 (moderate) and ≥5 (severe).\nThree sections for each lung sample were stained with H & E and Masson's Trichrome and scored on a Hübner-modified Ashcroft scale of 0-8. Three pictorial representations for each of groups 1-5 are shown in FIGS. 19A-E respectively (100×) and one representation for each of groups 1-5 is shown in FIGS. 19F-J (40×). Histology provides a picture or snapshot of the absence or presence of fibrosis. […] Other groups with higher concentrations of BETi also appeared to lessen bleomycin induced fibrosis but to a lesser degree."}, "[3]": {"tested_on": "anti collagen antibodies induced arthritis (ACAIA)", "assay": "ACAIA mice: hot plate withdrawal latency", "format": "in vivo, Balb/c mice", "experimental": "On days 0, 5 and 11 animals are placed on hot plate apparatus (53±1° C.) and the time until the first response is observed and recorded."}}, "data": [{"molecule": "Cn1cc(-c2cccc(O)c2Oc2ccccc2)c2cc[nH]c2c1=O", "note": "[BETi1]", "values": [{"measurement": "degradation in compositions comprising suspended BETi1", "setting": "[1]", "result": "no degradation of BETi1 being observed"}, {"measurement": "Mean Histology Score (Hubner-modified Ashcroft)", "setting": "[2]; Group 3 Bleo/BETi1 0.06 mg/mL", "result": 3.00}, {"measurement": "Mean Histology Score (Hubner-modified Ashcroft)", "setting": "[2]; Group 4 Bleo/BETi1 0.6 mg/mL", "result": 4.64}, {"measurement": "Mean Histology Score (Hubner-modified Ashcroft)", "setting": "[2]; Group 5 Bleo/BETi1 3 mg/mL", "result": 5.52}, {"measurement": "mean score, Hübner-modified Ashcroft scale of 0-8", "setting": "[2]; 0.06 mg/mL", "result": 3.00}, {"measurement": "mean score, Hübner-modified Ashcroft scale of 0-8", "setting": "[2]; 0.6 mg/mL", "result": 4.64}, {"measurement": "mean score, Hübner-modified Ashcroft scale of 0-8", "setting": "[2]; 3 mg/mL", "result": 5.52}, {"measurement": "Hot Plate Change in withdrawal latency (Avg.)", "setting": "[3]; 0.01 mg/kg IA, Baseline", "result": 11.57, "unit": "s"}, {"measurement": "Hot Plate Change in withdrawal latency (Avg.)", "setting": "[3]; 0.01 mg/kg IA, Day 5", "result": 11.86, "unit": "s"}, {"measurement": "Hot Plate Change in withdrawal latency (Avg.)", "setting": "[3]; 0.01 mg/kg IA, Day 11", "result": 12.00, "unit": "s"}, {"measurement": "Hot Plate Change in withdrawal latency (Avg.)", "setting": "[3]; 0.1 mg/kg IA, Baseline", "result": 11.14, "unit": "s"}, {"measurement": "Hot Plate Change in withdrawal latency (Avg.)", "setting": "[3]; 0.1 mg/kg IA, Day 5", "result": 10.43, "unit": "s"}, {"measurement": "Hot Plate Change in withdrawal latency (Avg.)", "setting": "[3]; 0.1 mg/kg IA, Day 11", "result": 9.57, "unit": "s"}, {"measurement": "Hot Plate Change in withdrawal latency (Avg.)", "setting": "[3]; 1 mg/kg IA, Baseline", "result": 11.71, "unit": "s"}, {"measurement": "Hot Plate Change in withdrawal latency (Avg.)", "setting": "[3]; 1 mg/kg IA, Day 5", "result": 11.57, "unit": "s"}, {"measurement": "Hot Plate Change in withdrawal latency (Avg.)", "setting": "[3]; 1 mg/kg IA, Day 11", "result": 11.29, "unit": "s"}, {"measurement": "Hot Plate Change in withdrawal latency (Avg.)", "setting": "[3]; 10 mg/kg IA, Baseline", "result": 10.57, "unit": "s"}, {"measurement": "Hot Plate Change in withdrawal latency (Avg.)", "setting": "[3]; 10 mg/kg IA, Day 5", "result": 12.00, "unit": "s"}, {"measurement": "Hot Plate Change in withdrawal latency (Avg.)", "setting": "[3]; 10 mg/kg IA, Day 11", "result": 11.00, "unit": "s"}]}]}
